Reference: ChEMBL document CHEMBL3108745, “Synthesis and structure-activity relationship of 3-hydroxypyridine-2-thione-based histone deacetylase inhibitors” (J Med Chem, 2013)
Activity calls are given as the source filed them. No cut-off for these calls is given here.

What was measured:
[1] = molecular target: T1, Protein deacetylase HDAC6 (Homo sapiens, UniProt Q9UBN7); experiment: Inhibition of HDAC6 (unknown origin) expressed in Escherichia coli BL21 (DE3) using GRKacYGC as substrate after 60 mins by SAMDI mass spectrometric analysis
T1 sequence (Q9UBN7 whole entry): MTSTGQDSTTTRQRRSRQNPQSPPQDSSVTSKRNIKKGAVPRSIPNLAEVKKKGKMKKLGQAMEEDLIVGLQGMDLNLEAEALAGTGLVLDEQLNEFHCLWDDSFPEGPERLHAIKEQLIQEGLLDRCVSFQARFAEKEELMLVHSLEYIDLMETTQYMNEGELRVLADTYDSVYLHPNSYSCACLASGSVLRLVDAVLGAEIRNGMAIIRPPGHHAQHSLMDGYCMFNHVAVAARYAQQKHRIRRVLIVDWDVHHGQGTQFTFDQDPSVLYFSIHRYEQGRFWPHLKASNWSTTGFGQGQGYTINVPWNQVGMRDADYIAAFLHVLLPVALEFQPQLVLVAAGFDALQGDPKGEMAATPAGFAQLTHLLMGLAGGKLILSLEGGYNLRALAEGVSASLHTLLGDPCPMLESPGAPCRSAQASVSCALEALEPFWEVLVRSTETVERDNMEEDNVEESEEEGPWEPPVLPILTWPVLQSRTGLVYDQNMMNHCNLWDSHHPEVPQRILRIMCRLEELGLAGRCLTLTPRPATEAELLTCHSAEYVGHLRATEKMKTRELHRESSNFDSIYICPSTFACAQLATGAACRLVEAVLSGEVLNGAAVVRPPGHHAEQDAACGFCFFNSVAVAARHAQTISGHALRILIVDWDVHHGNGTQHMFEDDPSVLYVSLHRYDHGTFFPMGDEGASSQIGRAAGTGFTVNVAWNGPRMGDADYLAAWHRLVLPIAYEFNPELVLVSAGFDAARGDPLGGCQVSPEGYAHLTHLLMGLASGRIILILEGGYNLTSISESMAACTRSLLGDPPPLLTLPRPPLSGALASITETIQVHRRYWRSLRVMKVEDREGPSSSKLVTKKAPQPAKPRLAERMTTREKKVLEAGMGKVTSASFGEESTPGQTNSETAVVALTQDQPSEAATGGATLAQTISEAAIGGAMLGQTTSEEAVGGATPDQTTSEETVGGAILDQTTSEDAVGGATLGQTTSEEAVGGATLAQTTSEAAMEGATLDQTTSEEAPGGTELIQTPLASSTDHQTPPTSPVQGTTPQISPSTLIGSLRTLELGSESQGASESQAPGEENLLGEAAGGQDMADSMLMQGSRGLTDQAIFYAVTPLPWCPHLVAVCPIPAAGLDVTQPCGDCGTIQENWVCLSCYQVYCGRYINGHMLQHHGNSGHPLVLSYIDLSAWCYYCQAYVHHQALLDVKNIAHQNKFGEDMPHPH

DU-145 = experiment: cells; format: functional, cell-based; conditions: Homo sapiens, DU-145, 72 h
Description: Cytotoxicity against androgen-independent human DU145 cells assessed as growth inhibition after 72 hrs by MTS assay

LNCaP = experiment: cells; conditions: Homo sapiens, 72 h
Description: Cytotoxicity against androgen-dependent human LNCAP cells assessed as growth inhibition after 72 hrs by MTS assay

[2] = Cytotoxicity against human Jurkat gamma1 cells assessed as growth inhibition after 72 hrs by MTS assay; format: functional, cell-based
Histone deacetylase 8 = molecular target: T2, Histone deacetylase 8 (Homo sapiens, UniProt Q9BY41); experiment: Inhibition of HDAC8 catalytic domain (unknown origin) expressed in Escherichia coli BL21 (DE3) using GRKacFGC as substrate after 60 mins by SAMDI mass spectrometric analysis
T2 sequence (Q9BY41 whole entry): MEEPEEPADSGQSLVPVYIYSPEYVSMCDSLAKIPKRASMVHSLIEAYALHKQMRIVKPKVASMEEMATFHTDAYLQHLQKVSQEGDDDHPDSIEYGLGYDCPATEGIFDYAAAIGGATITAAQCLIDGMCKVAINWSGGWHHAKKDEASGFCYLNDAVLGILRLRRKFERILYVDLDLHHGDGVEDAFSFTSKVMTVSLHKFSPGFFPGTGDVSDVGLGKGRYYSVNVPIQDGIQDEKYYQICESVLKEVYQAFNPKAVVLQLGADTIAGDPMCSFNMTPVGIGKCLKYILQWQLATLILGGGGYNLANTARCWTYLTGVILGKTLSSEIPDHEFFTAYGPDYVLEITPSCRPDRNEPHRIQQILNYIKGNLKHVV

[3] = molecular target: Histone deacetylase 1 (Homo sapiens) (UniProt Q13547); experiment: Inhibition of HDAC1 (unknown origin) expressed in Escherichia coli BL21 (DE3) using GRKacFGC as substrate at 10 uM after 60 mins by SAMDI mass spectrometric analysis relative to control
Sequence of Histone deacetylase 1 (Homo sapiens) (Q13547 whole entry): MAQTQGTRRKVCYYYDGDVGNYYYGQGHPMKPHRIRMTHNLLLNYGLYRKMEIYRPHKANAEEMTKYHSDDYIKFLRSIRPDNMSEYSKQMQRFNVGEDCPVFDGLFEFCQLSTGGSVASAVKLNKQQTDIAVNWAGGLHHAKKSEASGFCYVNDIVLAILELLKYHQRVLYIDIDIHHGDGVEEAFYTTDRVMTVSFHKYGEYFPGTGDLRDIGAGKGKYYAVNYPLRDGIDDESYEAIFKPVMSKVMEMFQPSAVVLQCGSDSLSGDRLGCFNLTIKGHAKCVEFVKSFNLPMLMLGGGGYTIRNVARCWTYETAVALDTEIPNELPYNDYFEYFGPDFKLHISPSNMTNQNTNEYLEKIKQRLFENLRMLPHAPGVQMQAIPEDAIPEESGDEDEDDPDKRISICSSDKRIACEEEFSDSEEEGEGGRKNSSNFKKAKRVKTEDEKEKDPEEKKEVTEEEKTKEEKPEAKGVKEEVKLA

Jurkat = experiment: cells; format: functional, cell-based; conditions: Homo sapiens, 72 h
Description: Cytotoxicity against human Jurkat cells assessed as growth inhibition after 72 hrs by MTS assay

[4] = Aqueous solubility of the compound […] at room temperature by UV-vis spectrophotometric analysis; format: physicochemical
[5] = molecular target: T3, Histone deacetylase 8 (Homo sapiens) (UniProt Q9BY41); experiment: Inhibition of HDAC8 catalytic domain (unknown origin) expressed in Escherichia coli BL21 (DE3) using GRKacFGC as substrate at 10 nM to 1 mM after 60 mins by SAMDI mass spectrometric analysis
T3 sequence (whole entry): T2 sequence (Q9BY41 whole entry)

[6] = molecular target: Histone deacetylase 1 (Homo sapiens) (UniProt Q13547); experiment: Inhibition of HDAC1 (unknown origin) expressed in Escherichia coli BL21 (DE3) using GRKacFGC as substrate at 10 nM to 1 mM after 60 mins by SAMDI mass spectrometric analysis
[7] = molecular target: T4, Protein deacetylase HDAC6 (Homo sapiens) (UniProt Q9UBN7); experiment: Inhibition of HDAC6 (unknown origin) expressed in Escherichia coli BL21 (DE3) using GRKacYGC as substrate at 10 nM to 1 mM after 60 mins by SAMDI mass spectrometric analysis
T4 sequence (whole entry): T1 sequence (Q9UBN7 whole entry)

[8] = molecular target: T4, Protein deacetylase HDAC6 (Homo sapiens); experiment: Inhibition of HDAC6 (unknown origin) expressed in Escherichia coli BL21 (DE3) using GRKacYGC as substrate at 10 uM after 60 mins by SAMDI mass spectrometric analysis relative to control
Vero = experiment: Cytotoxicity against African green monkey Vero cells assessed as growth inhibition after 72 hrs by MTS assay; format: cell-based; conditions: Chlorocebus sabaeus

## Oc1cccn(CCCCCCCn2cc(-c3ccccc3)nn2)c1=S
[1]
  IC50: 0.955 µM
DU-145
  IC50: 17.7 µM
LNCaP
  IC50: 11 µM
[2]
  IC50: > 20 µM
Histone deacetylase 8
  IC50: 1.38 µM
[3]
  inhibition: < 20%
Jurkat
  IC50: 9.04 µM
[4]
  solubility: soluble

## CN(C)c1ccc(-c2cn(CCCCCn3cccc(O)c3=S)nn2)cc1
[3]
  inhibition: < 20%

## Cc1ccc(-c2cn(CCCCCn3cccc(O)c3=S)nn2)cc1
[1]
  IC50: 0.807 µM
Histone deacetylase 8
  IC50: 2.53 µM
[3]
  inhibition: < 20%

## Cc1ccccc1-c1cn(CCCCCn2cccc(O)c2=S)nn1
[1]
  IC50: 0.637 µM
DU-145
  IC50: 11.1 µM
LNCaP
  IC50: 4.95 µM
Histone deacetylase 8
  IC50: 2.4 µM
[3]
  inhibition: < 20%
Jurkat
  IC50: 5.18 µM
[4]
  solubility: soluble

## O=c1c(O)cccn1CCCCn1cc(-c2ccccc2)nn1
[5]
  inhibition: inactive
[6]
  inhibition: inactive
[7]
  inhibition: inactive

## Cc1cccc(-c2cn(CCCCCn3cccc(O)c3=O)nn2)c1
[5]
  inhibition: inactive
[6]
  inhibition: inactive
[7]
  inhibition: inactive

## N#Cc1ccc(-c2cn(CCCCCn3cccc(O)c3=S)nn2)cc1
[3]
  inhibition: < 20%

## Oc1cccn(Cc2cn(-c3ccccc3)nn2)c1=S
[8]
  inhibition: 41%
[3]
  inhibition: < 20%

## O=c1c(O)cccn1CCCCCn1cc(-c2ccccc2)nn1
[5]
  inhibition: inactive
[6]
  inhibition: inactive
[7]
  inhibition: inactive

## Oc1cccn(CCCCn2cc(-c3ccccc3)nn2)c1=S
[1]
  IC50: 1.08 µM
Histone deacetylase 8
  IC50: 3.3 µM
[3]
  inhibition: < 20%

## Oc1cccn(CCn2cc(-c3ccccc3)nn2)c1=S
[8]
  inhibition: 14%
[3]
  inhibition: < 20%

## N#Cc1cccc(-c2cn(CCCCCn3cccc(O)c3=O)nn2)c1
[5]
  inhibition: inactive
[6]
  inhibition: inactive
[7]
  inhibition: inactive

## Cc1ccc(-c2cn(CCCCCn3cccc(O)c3=O)nn2)cc1
[5]
  inhibition: inactive
[6]
  inhibition: inactive
[7]
  inhibition: inactive

## CN(C)c1ccc(-c2cn(CCCCCn3cccc(O)c3=O)nn2)cc1
[5]
  inhibition: inactive
[6]
  inhibition: inactive
[7]
  inhibition: inactive

## Oc1cccn(CCCn2cc(-c3ccccc3)nn2)c1=S
[1]
  IC50: 3.63 µM
[3]
  inhibition: < 20%

## Cc1ccccc1-c1cn(CCCCCn2cccc(O)c2=O)nn1
[5]
  inhibition: inactive
[6]
  inhibition: inactive
[7]
  inhibition: inactive

## N#Cc1ccc(-c2cn(CCCCCn3cccc(O)c3=O)nn2)cc1C(F)(F)F
[5]
  inhibition: inactive
[6]
  inhibition: inactive
[7]
  inhibition: inactive

## N#Cc1ccc(-c2cn(CCCCCn3cccc(O)c3=S)nn2)cc1C(F)(F)F
[3]
  inhibition: < 20%

## O=c1c(O)cccn1CCCCCCCn1cc(-c2ccccc2)nn1
[5]
  inhibition: inactive
[6]
  inhibition: inactive
[7]
  inhibition: inactive

## O=c1c(O)cccn1CCCn1cc(-c2ccccc2)nn1
[5]
  inhibition: inactive
[6]
  inhibition: inactive
[7]
  inhibition: inactive

## Oc1cccn(CCCCCCn2cc(-c3ccccc3)nn2)c1=S
Histone deacetylase 8
  IC50: 6.75 µM
[8]
  inhibition: 22%
[3]
  inhibition: < 20%

## Cc1cccc(-c2cn(CCCCCn3cccc(O)c3=S)nn2)c1
[1]
  IC50: 1.1 µM
Histone deacetylase 8
  IC50: 1.66 µM
[3]
  inhibition: < 20%

## O=c1c(O)cccn1CCn1cc(-c2ccccc2)nn1
[5]
  inhibition: inactive
[6]
  inhibition: inactive
[7]
  inhibition: inactive

## N#Cc1ccc(-c2cn(CCCCCn3cccc(O)c3=O)nn2)cc1
[5]
  inhibition: inactive
[6]
  inhibition: inactive
[7]
  inhibition: inactive

## CN1CCc2c(c3ccccc3n2Cc2ccc(C(=O)NO)cc2)C1 [TUBASTATIN A]
Vero
  IC50: > 20 µM
LNCaP
  IC50: 10.9 µM
Jurkat
  IC50: 3.38 µM

## O=c1c(O)cccn1CCCCCCn1cc(-c2ccccc2)nn1
[5]
  inhibition: inactive
[6]
  inhibition: inactive
[7]
  inhibition: inactive
